Results from US8901129B2, “Methods of facilitating neural cell survival using GDNF family ligand (GFL) mimetics or RET signaling pathway activators” (GeneCode AS, priority 2009, dated 2014).

Assays:
6-OHDA lesioned rats = experiment: Amphetamine induced rotation asymmetry in 6-OHDA rat model of Parkinson's disease (FIG. 7); format: in vivo; settings: for amphetamine-induced ipsilateral rotation: 3 weeks after 6-OHDA, measured 6 weeks after 6-OHDA; for amphetamine-induced ipsilateral rotation of lesioned rats: injected into striatum 3 weeks after 6-OHDA, dose not stated
Text: The objective of this study is to investigate the effect of intrastriatally (i.s.) administered small molecule GDNF mimetics (compounds 13, 16, 319H6 and 292651, structures shown in the description of the Figures, above) in a rat model 6-OHDA of Parkinson's disease. In the sub-acute lesion model used in this study, the lesion of the substantia nigra (SNc) that slowly progresses over weeks is created by injection of 6-OHDA into the proximity of the dopaminergic terminals in the striatum (Kirik-D 1998, Exp. Neurol. 152:259-277). In this model, a portion of the nigrostriatal projection is left intact, which can serve as a substrate for regeneration and functional recovery in response to growth promoting and neuroprotective agents.
(§1) GDNF mimetics compounds, GDNF or vehicle is administered to the striatum at 3 weeks after the exposure to the neurotoxin 6-OHDA. The selective damage to dopaminergic neurons in the SNc, as well as striatal levels of dopamine and its metabolites are evaluated 12 weeks after the injection of 6-OHDA with tyrosine hydroxylase (TH) immunohistochemistry and HPLC, respectively. In addition, the behavioral impairment of rats is evaluated by forelimb asymmetry test (cylinder test), amphetamine induced rotation asymmetry test and Y-maze test for stereotypic spontaneous rotation deficits.
Animals: All animal experiments are carried out according to the National Institute of Health (NIH) guidelines for the care and use of laboratory animals, and approved by the State Provincial Office of Southern Finland. Altogether 108 male Wistar rats, purchased from Charles River, Germany and weighing 220-275 g are used for the experiment. Animals are housed at a standard temperature (22±1° C.) and in a light-controlled environment (lights on from 7 am to 8 pm) with ad libitum access to food and water. Animals are grouped as follows:
In order to generate partial retrograde degeneration into the SNc, 6-OHDA lesioning is carried out according to Sauer and Oertel with modifications (Sauer and Oertel, 1994). Male Wistar rats are anesthetized with 5% isoflurane (in 70% N2O and 30% O2; flow 300 ml/min) and placed in a stereotactic frame. During the operation concentration of anesthetic is reduced to 1-1.5%. The rectal temperature is maintained at 37.0±1.0° C. with a homeothermic blanket system. The right brain hemisphere is exposed through a small craniectomy to the skull. The dura mater is carefully removed with fine forceps and a stereotaxic injection of 6-OHDA (4 μg/μl) is made into the right striatum. A total of 7 μl of 6-OHDA is infused at a speed of 0.5 μl/min and is equally distributed between 4 sites at the following coordinates: AP+1.0, ML+2.8, DV−6.0, −5.5, −5.0 and −4.4 mm. The cannula is left in place for another 5 min before being withdrawn. The hole in the skull is subsequently filled with repair material and the skin is closed and disinfected. The rats are allowed to recover from anesthesia and are carefully monitored for possible post surgical complications. The animals are returned to the home cages with ad libitum access to food and water.
On day 21, rats are re-anesthetized with 5% isoflurane (in 70% N2O and 30% O2; flow 300 ml/min) and placed in a stereotactic frame. During the operation concentration of anesthetic is reduced to 1-1.5%. The rectal temperature is maintained at 37.0±1.0° C. with a homeothermic blanket system. The right brain hemisphere is exposed through a small craniectomy to the skull. A stereotaxic injection of the test compound, GDNF or vehicle is made into the right striatum. Each dosing solution is infused at a speed of 1 μl/min and is equally distributed between 4 sites at the following coordinates: AP+1.0, ML+2.8, DV−6.0, −5.5, −5.0 and −4.4 mm. The cannula is left in place for another 5 min before being withdrawn. The hole in the skull is subsequently filled with repair material and the skin is closed and disinfected. […]

6-OHDA-treated rats = experiment: Side effects / toxic effects after intrastriatal injection in 6-OHDA-treated rats; format: in vivo; settings: injected intrastriatally
Procedure: as §1
On day 21, rats are re-anesthetized with 5% isoflurane (in 70% N2O and 30% O2; flow 300 ml/min) and placed in a stereotactic frame. During the operation concentration of anesthetic is reduced to 1-1.5%. The rectal temperature is maintained at 37.0±1.0° C. with a homeothermic blanket system. The right brain hemisphere is exposed through a small craniectomy to the skull. A stereotaxic injection of the test compound, GDNF or vehicle is made into the right striatum. Each dosing solution is infused at a speed of 1 μl/min and is equally distributed between 4 sites at the following coordinates: AP+1.0, ML+2.8, DV−6.0, −5.5, −5.0 and −4.4 mm. The cannula is left in place for another 5 min before being withdrawn. The hole in the skull is subsequently filled with repair material and the skin is closed and disinfected. The rats are allowed to recover from anesthesia and are carefully monitored for possible post surgical complications. The animals are returned to the home cages with ad libitum access to food and water.
Animals are monitored daily by laboratory personnel. […] Definitions of acceptable endpoints include: no spontaneous movements and inability to drink or eat in 24-h observation period, massive bleeding, spontaneous inflammation, missing anatomy, swelling or tumors larger than 20 mm, and inability to right itself in 30 sec period.

Row | SMILES | amphetamine-induced ipsilateral rotation (6-OHDA lesioned rats; 0.2 ug intrastriatal) | amphetamine-induced ipsilateral rotation of lesioned rats (6-OHDA lesioned rats) | toxic effects in behavioral assays (6-OHDA-treated rats) | amphetamine-induced ipsilateral rotation (6-OHDA lesioned rats; intrastriatal (Group 5: 0.5 ug per rat)) | amphetamine-induced ipsilateral rotation (6-OHDA lesioned rats; 1 ug intrastriatal)
1 | CCN(CC)S(=O)(=O)c1ccc(OC)c(N2CCN(C(=O)c3cc(F)ccc3C(F)(F)F)CC2)c1 [BT13] | reduced amphetamine-induced ipsilateral rotation | significantly reduce | did not cause toxic effects |  | 
2 | COc1ccc(S(=O)(=O)N2CCc3ccccc3C2)cc1N1CCN(C(=O)c2cc(F)ccc2C(F)(F)F)CC1 [BT16] |  | significantly reduce | did not cause toxic effects | reduced amphetamine-induced ipsilateral rotation | 
3 | COc1cc2c(cc1OC)CN(S(=O)(=O)c1ccc(OC)c(N3CCN(C(=O)c4cc(F)ccc4C(F)(F)F)CC3)c1)CC2 [BT18] |  | significantly reduce | did not cause toxic effects |  | reduced amphetamine-induced ipsilateral rotation
